Data on four compounds can be found in US20110251134A1, “COMBINATION OF (A) A DNA TOPOSOMERASE INHIBITOR AND (B) AN IAP INHIBITOR” (priority 2004, published 2011).

One assay has as its system caspase-3. Nature of the assay: caspase-3 activity in a breast tumor model. It counts as cell-based. The method, then: In a breast tumor model, both compound C and topotecan (1 nM) individually increase caspase-3 activity less than two fold over the control. A nearly twelve fold increase in caspase-3 activity is seen with the same amount of compound C at a concentration of about 1 nM topotecan.

For a further assay, the system named is melanoma model. The assay can be described thus: growth in a melanoma model. It counts as cell-based.

In the case of `CC[C@@]1(O)C(=O)OCc2c1cc1n(c2=O)Cc2cc3c(CN(C)C)c(O)ccc3nc2-1` [topotecan], the “increase in caspase-3 activity over the control” value in the assay with caspase-3 (topotecan 1 nM alone) is “less than two”.

Take `CN[C@@H](C)C(=O)N[C@H](C(=O)N1CCC[C@H]1C(=O)NC(Cc1ccccc1)Cc1ccccc1)C(C)C` [compound D]: in the assay on melanoma model (compound D 250 nM alone), the growth result is “about 90 % of control”.

`CN[C@@H](C)C(=O)N[C@H](C(=O)N1C[C@@H](NC(=O)CC2CCCCC2)C[C@H]1C(=O)NCCc1ccccc1)C(C)C` [compound C]: the “increase in caspase-3 activity over the control” value in the assay with caspase-3 (compound C alone) is “less than two”.

On to `CC[C@@]1(O)C(=O)OCc2c1cc1n(c2=O)Cc2cc3ccccc3nc2-1` [camptothecin, Camptothecin], for which the growth result with melanoma model (camptothecin 5 nM alone) is given as “about 50 % of control”.
